Measured values: PubChem BioAssay (NCI)
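Following 48 hours of exposure in 96-well plates, responses at five concentrations were used to interpolate endpoints linearly. The concentration for 50% growth inhibition is given as GI50. The concentration for full growth arrest is given as TGI.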

How the values were obtained:
Test in all cases: DTP human tumour cell line panel, 48 h
[1] = system: OVCAR-4 ovarian
[2] = system: UACC-257 melanoma
[3] = system: U251 CNS
[4] = system: SK-MEL-28 melanoma
[5] = system: SN12C renal
[6] = system: OVCAR-3 ovarian
[7] = system: HT29 colon
[8] = system: CCRF-CEM leukemia
[9] = system: HCC-2998 colon
[10] = system: MDA-MB-231 breast

SMILES	TGI [1] [µM]	TGI [2] [µM]	TGI [3] [µM]	TGI [4] [µM]	TGI [5] [µM]	TGI [6] [µM]	TGI [7] [µM]	TGI [8] [µM]	TGI [9] [µM]	GI50 [1] [µM]	GI50 [2] [µM]	GI50 [3] [µM]	GI50 [4] [µM]	GI50 [5] [µM]	GI50 [6] [µM]	GI50 [7] [µM]	GI50 [8] [nM]	GI50 [9] [µM]	GI50 [10] [µM]	TGI [10] [µM]
CCOC(=O)/C=C(/CN1C(=O)c2ccccc2C1=O)c1ccccc1	> 100	> 100	> 100	> 100	> 100	> 100	> 100	> 100	> 100	–	–	–	–	–	–	–	–	–	–	–
Cn1nnnc1[N-]Cc1ccccc1.[Au+].c1ccc([PH+](c2ccccc2)c2ccccc2)cc1	5.42	7.78	11.8	7.23	17	5.2	13.3	3.95	21.8	1.99	2.01	3.41	2.53	5.01	2.47	5.02	752	8.55	–	–
O=c1oc2c3ccc4ccccc4c3n(Cc3nc4ccccc4[nH]3)c2c2ccccc12	> 100	> 90.6	> 100	> 100	> 100	> 72.8	> 63.4	> 100	> 100	–	–	–	–	–	–	–	–	–	–	–
OCC1OC(N2C=C(c3nc4ccccc4s3)C3C=CC=CC32)C(O)C1O (centres undefined)	> 50	22.1	14.8	27.8	34.3	36.6	25.2	–	–	14.3	9.17	6	10.8	11.1	13.4	9.52	–	–	11.3	30.2
COc1cc2ccc3c4cc(OC)c(OCc5ccccc5)cc4cnc3c2cc1OC	> 100	> 100	> 100	> 100	> 100	> 100	> 100	> 100	> 100	–	–	–	–	–	–	–	–	–	–	–
CCCCCCCCCCCC(=O)C1=C(O)C(O)CCC1=O (centres undefined)	90.8	37.2	55.5	38.6	78.3	38.3	30.1	40.6	52.9	–	–	–	–	–	–	–	–	–	–	–
N#C/C(=C(\O)C(=O)O)c1ccc(-c2cccc3ccccc23)cc1	> 100	> 100	> 100	> 100	> 100	> 100	> 100	> 100	–	–	–	–	–	–	–	–	–	–	–	> 100
O=C(O)c1[nH]c(C(=O)O)c(CC(F)(F)C(F)(F)C(F)(F)F)c1CC(F)(F)C(F)(F)C(F)(F)F	> 100	> 100	> 100	> 100	> 100	> 100	> 100	> 100	> 100	–	–	–	–	–	–	–	–	–	–	–
CC1(C)OC2C(=O)OC(COCc3ccccc3)C2O1 (centres undefined)	> 100	> 100	> 100	> 100	> 100	> 100	> 100	> 100	> 100	–	–	–	–	–	–	–	–	–	–	–
Cn1c(=O)c2c(nc3n2CCC(=O)N3)n(C)c1=O	> 100	> 100	> 100	> 100	> 100	–	> 100	> 100	–	–	–	–	–	–	–	–	–	–	–	–
